Test results published in PubChem BioAssay (NCI).
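Five concentrations, 48 hours, 96-well plates. Definition used: TGI = concentration required for complete inhibition of growth.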

Tests used:
Experiment in all cases: NCI-60 cell line screen, 48 h
786-0 renal = test system: 786-0 renal
A498 renal = test system: A498 renal
A549 NSCLC = test system: A549 NSCLC
ACHN renal = test system: ACHN renal
BT-549 breast = test system: BT-549 breast
CAKI-1 renal = test system: CAKI-1 renal
CCRF-CEM leukemia = test system: CCRF-CEM leukemia
COLO 205 colon = test system: COLO 205 colon
DMS 114 small cell lung = test system: DMS 114 small cell lung
DMS 273 small cell lung = test system: DMS 273 small cell lung
DU-145 prostate = test system: DU-145 prostate
EKVX NSCLC = test system: EKVX NSCLC
HCC-2998 colon = test system: HCC-2998 colon
HCT-116 colon = test system: HCT-116 colon
HCT-15 colon = test system: HCT-15 colon
HL-60(TB) leukemia = test system: HL-60(TB) leukemia
HOP-18 NSCLC = test system: HOP-18 NSCLC
HOP-62 NSCLC = test system: HOP-62 NSCLC
HOP-92 NSCLC = test system: HOP-92 NSCLC
HS 578T breast = test system: HS 578T breast
HT29 colon = test system: HT29 colon
IGROV1 ovarian = test system: IGROV1 ovarian
K-562 leukemia = test system: K-562 leukemia
KM12 colon = test system: KM12 colon
KM20L2 colon = test system: KM20L2 colon
LOX IMVI melanoma = test system: LOX IMVI melanoma
LXFL 529 NSCLC = test system: LXFL 529 NSCLC
M14 melanoma = test system: M14 melanoma
M19-MEL melanoma = test system: M19-MEL melanoma
MALME-3M melanoma = test system: MALME-3M melanoma
MCF7 breast = test system: MCF7 breast
MDA-MB-231 breast = test system: MDA-MB-231 breast
MDA-MB-435 = test system: MDA-MB-435
MDA-N = test system: MDA-N
MOLT-4 leukemia = test system: MOLT-4 leukemia
NCI-H226 lung = test system: NCI-H226 lung
NCI-H23 lung = test system: NCI-H23 lung
NCI-H460 lung = test system: NCI-H460 lung
NCI-H522 lung = test system: NCI-H522 lung
NCI/ADR-RES ovarian = test system: NCI/ADR-RES ovarian
OVCAR-3 ovarian = test system: OVCAR-3 ovarian
OVCAR-4 ovarian = test system: OVCAR-4 ovarian
OVCAR-5 ovarian = test system: OVCAR-5 ovarian
OVCAR-8 ovarian = test system: OVCAR-8 ovarian
PC-3 prostate = test system: PC-3 prostate
RPMI-8226 leukemia = test system: RPMI-8226 leukemia
RXF 393 renal = test system: RXF 393 renal
RXF-631 renal = test system: RXF-631 renal
SF-268 CNS = test system: SF-268 CNS
SF-295 CNS = test system: SF-295 CNS
SF-539 CNS = test system: SF-539 CNS
SK-MEL-2 melanoma = test system: SK-MEL-2 melanoma
SK-MEL-28 melanoma = test system: SK-MEL-28 melanoma
SK-MEL-5 melanoma = test system: SK-MEL-5 melanoma
SK-OV-3 ovarian = test system: SK-OV-3 ovarian
SN12C renal = test system: SN12C renal
SNB-19 CNS = test system: SNB-19 CNS
SNB-75 CNS = test system: SNB-75 CNS
SR leukemia = test system: SR leukemia
SW-620 colon = test system: SW-620 colon
T-47D breast = test system: T-47D breast
TK-10 renal = test system: TK-10 renal
U251 CNS = test system: U251 CNS
UACC-257 melanoma = test system: UACC-257 melanoma
UACC-62 melanoma = test system: UACC-62 melanoma
UO-31 renal = test system: UO-31 renal
XF 498 CNS = test system: XF 498 CNS
DLD-1 colon = test system: DLD-1 colon
SNB-78 CNS = test system: SNB-78 CNS

Question: With `COc1cc(Nc2nc3c(N)cc(C(F)(F)F)cc3nc2-c2ccccc2)cc(OC)c1OC` as the compound, how does the TGI (786-0 renal) read?
Answer: 74.4 µM

Question: What about the TGI (A498 renal) of the same compound?
Answer: 7.36 µM

Question: What about the TGI (A549 NSCLC) of the same compound?
Answer: > 100 µM

Question: What about the TGI (ACHN renal) of the same compound?
Answer: > 100 µM

Question: What about the TGI (BT-549 breast) of the same compound?
Answer: > 83.5 µM

Question: What about the TGI (CAKI-1 renal) of the same compound?
Answer: > 100 µM

Question: What about the TGI (CCRF-CEM leukemia) of the same compound?
Answer: > 100 µM

Question: What about the TGI (COLO 205 colon) of the same compound?
Answer: > 100 µM

Question: And the TGI (DMS 114 small cell lung)?
Answer: > 100 µM

Question: And the TGI (DMS 273 small cell lung)?
Answer: > 100 µM

Question: What about the TGI (DU-145 prostate) of the same compound?
Answer: > 100 µM

Question: And the TGI (EKVX NSCLC)?
Answer: > 100 µM

Question: And the TGI (HCC-2998 colon)?
Answer: > 100 µM

Question: What about the TGI (HCT-116 colon) of the same compound?
Answer: > 100 µM

Question: And the TGI (HCT-15 colon)?
Answer: > 100 µM

Question: What about the TGI (HL-60(TB) leukemia) of the same compound?
Answer: > 100 µM

Question: And the TGI (HOP-18 NSCLC)?
Answer: > 81 µM

Question: And the TGI (HOP-62 NSCLC)?
Answer: > 86.1 µM

Question: And the TGI (HOP-92 NSCLC)?
Answer: 16.7 µM

Question: What about the TGI (HS 578T breast) of the same compound?
Answer: > 83.6 µM

Question: And the TGI (HT29 colon)?
Answer: > 100 µM

Question: What about the TGI (IGROV1 ovarian) of the same compound?
Answer: > 100 µM

Question: What about the TGI (K-562 leukemia) of the same compound?
Answer: > 100 µM

Question: And the TGI (KM12 colon)?
Answer: > 100 µM

Question: And the TGI (KM20L2 colon)?
Answer: 99.9 µM

Question: What about the TGI (LOX IMVI melanoma) of the same compound?
Answer: > 100 µM

Question: And the TGI (LXFL 529 NSCLC)?
Answer: > 100 µM

Question: What about the TGI (M14 melanoma) of the same compound?
Answer: > 100 µM

Question: What about the TGI (M19-MEL melanoma) of the same compound?
Answer: > 100 µM

Question: And the TGI (MALME-3M melanoma)?
Answer: 75.9 µM

Question: What about the TGI (MCF7 breast) of the same compound?
Answer: > 100 µM

Question: What about the TGI (MDA-MB-231 breast) of the same compound?
Answer: > 95.5 µM

Question: What about the TGI (MDA-MB-435) of the same compound?
Answer: > 100 µM

Question: What about the TGI (MDA-N) of the same compound?
Answer: > 100 µM

Question: What about the TGI (MOLT-4 leukemia) of the same compound?
Answer: > 100 µM

Question: And the TGI (NCI-H226 lung)?
Answer: > 88.5 µM

Question: What about the TGI (NCI-H23 lung) of the same compound?
Answer: > 100 µM

Question: And the TGI (NCI-H460 lung)?
Answer: > 100 µM

Question: What about the TGI (NCI-H522 lung) of the same compound?
Answer: > 92 µM

Question: What about the TGI (NCI/ADR-RES ovarian) of the same compound?
Answer: > 100 µM

Question: And the TGI (OVCAR-3 ovarian)?
Answer: > 100 µM

Question: And the TGI (OVCAR-4 ovarian)?
Answer: 58.8 µM

Question: And the TGI (OVCAR-5 ovarian)?
Answer: > 100 µM

Question: What about the TGI (OVCAR-8 ovarian) of the same compound?
Answer: > 100 µM

Question: What about the TGI (PC-3 prostate) of the same compound?
Answer: > 89.4 µM

Question: And the TGI (RPMI-8226 leukemia)?
Answer: > 100 µM

Question: And the TGI (RXF 393 renal)?
Answer: 36.2 µM

Question: And the TGI (RXF-631 renal)?
Answer: > 85.2 µM

Question: And the TGI (SF-268 CNS)?
Answer: > 100 µM

Question: What about the TGI (SF-295 CNS) of the same compound?
Answer: 53.3 µM

Question: And the TGI (SF-539 CNS)?
Answer: > 74 µM

Question: What about the TGI (SK-MEL-2 melanoma) of the same compound?
Answer: > 100 µM

Question: And the TGI (SK-MEL-28 melanoma)?
Answer: > 100 µM

Question: And the TGI (SK-MEL-5 melanoma)?
Answer: 83 µM

Question: And the TGI (SK-OV-3 ovarian)?
Answer: > 92.2 µM

Question: What about the TGI (SN12C renal) of the same compound?
Answer: > 100 µM

Question: And the TGI (SNB-19 CNS)?
Answer: > 91.5 µM

Question: And the TGI (SNB-75 CNS)?
Answer: 53.8 µM

Question: What about the TGI (SR leukemia) of the same compound?
Answer: > 100 µM

Question: What about the TGI (SW-620 colon) of the same compound?
Answer: > 100 µM

Question: And the TGI (T-47D breast)?
Answer: > 83 µM

Question: And the TGI (TK-10 renal)?
Answer: > 95.4 µM

Question: What about the TGI (U251 CNS) of the same compound?
Answer: > 89.2 µM

Question: And the TGI (UACC-257 melanoma)?
Answer: > 100 µM

Question: And the TGI (UACC-62 melanoma)?
Answer: > 92.3 µM

Question: And the TGI (UO-31 renal)?
Answer: > 100 µM

Question: What about the TGI (XF 498 CNS) of the same compound?
Answer: 47.9 µM

Question: What does the source list for `N#CC1=C(Cl)NC(Cl)=C(C#N)C1c1ccc(Cl)cc1`?
Answer: TGI (786-0 renal): 29.2 µM; TGI (A498 renal): 81.3 µM; TGI (A549 NSCLC): 37.1 µM; TGI (ACHN renal): 34.2 µM; TGI (CAKI-1 renal): 43.9 µM; TGI (CCRF-CEM leukemia): 65.8 µM; TGI (COLO 205 colon): 30.3 µM; TGI (DLD-1 colon): 32 µM; TGI (DMS 114 small cell lung): 28.8 µM; TGI (DMS 273 small cell lung): 31 µM; TGI (EKVX NSCLC): 39.4 µM; TGI (HCC-2998 colon): 33.2 µM; TGI (HCT-116 colon): 34.4 µM; TGI (HCT-15 colon): 29 µM; TGI (HL-60(TB) leukemia): 45.4 µM; TGI (HOP-18 NSCLC): 33.6 µM; TGI (HOP-62 NSCLC): 33.1 µM; TGI (HOP-92 NSCLC): 30.5 µM; TGI (HT29 colon): 30.1 µM; TGI (IGROV1 ovarian): 32.9 µM; TGI (K-562 leukemia): 28.5 µM; TGI (KM12 colon): 33 µM; TGI (KM20L2 colon): 39.3 µM; TGI (LOX IMVI melanoma): 29.6 µM; TGI (LXFL 529 NSCLC): 29.9 µM; TGI (M14 melanoma): 30.5 µM; TGI (MALME-3M melanoma): 38.7 µM; TGI (MOLT-4 leukemia): 39.3 µM; TGI (NCI-H226 lung): 44.7 µM; TGI (NCI-H23 lung): 32.8 µM; TGI (NCI-H460 lung): 31.5 µM; TGI (NCI-H522 lung): 25.8 µM; TGI (OVCAR-3 ovarian): 27 µM; TGI (OVCAR-5 ovarian): > 100 µM; TGI (OVCAR-8 ovarian): 29.7 µM; TGI (RPMI-8226 leukemia): 37.5 µM; TGI (RXF 393 renal): 32.9 µM; TGI (RXF-631 renal): 29.5 µM; TGI (SF-268 CNS): 33 µM; TGI (SF-295 CNS): 53.9 µM; TGI (SF-539 CNS): 33.2 µM; TGI (SK-MEL-2 melanoma): 27.5 µM; TGI (SK-MEL-28 melanoma): 41.4 µM; TGI (SK-MEL-5 melanoma): 30.7 µM; TGI (SK-OV-3 ovarian): 31.7 µM; TGI (SN12C renal): 30.9 µM; TGI (SNB-19 CNS): 31 µM; TGI (SNB-75 CNS): 28.3 µM; TGI (SNB-78 CNS): 72.5 µM; TGI (SR leukemia): 44.1 µM; TGI (SW-620 colon): 26.3 µM; TGI (TK-10 renal): 32.5 µM; TGI (U251 CNS): 29.8 µM; TGI (UACC-257 melanoma): 34.7 µM; TGI (UACC-62 melanoma): 30.5 µM; TGI (UO-31 renal): 30.8 µM; TGI (XF 498 CNS): 27.4 µM
